Experimental data taken from patent publication US20060148842A1, “Nepetalactams and N-substituted derivatives thereof” (priority 2004, published 2006).

What follows are compounds tested on Aedes aegypti mosquitoes (assay: in vitro Gupta box landing assay (insect repellency)). Conditions: 20 min; 1.0% (w/v) in IPA, 25 μL on Baudruche membrane; landings of female Aedes aegypti over 20 min vs IPA control.
Description: The products of Examples 1-15 were evaluated for insect repellency against Aedes aegypti mosqutioes in the in vitro Gupta box landing assay. In this method a chamber contained 5 wells, each covered by a Baudruche (animal intestine) membrane. Each well was filled with bovine blood containing sodium citrate (to prevent clotting) and ATP (72 mg ATP disodium salt per 26 ml of blood), and heated to 37° C. A volume of 25 μL of isopropyl alcohol (IPA) containing one test specimen or control was applied to each membrane. The concentrations were 1.0% (w/v) in IPA. The negative control was membrane surface treated with neat IPA, and the positive control was a 1.0% (w/v) solution of DEET.
After 5 min, approximately 250 4-day-old female Aedes aegypti mosquitoes were introduced into the chamber. The number of mosquitoes probing the membranes for each treatment was recorded at 2 min intervals over 20 min. The results obtained in this manner with respect to the compounds of Examples 1˜12 are depicted, respectively, in FIGS. 1-12 (labeled as Examples 16˜27) wherein each datum represents the mean of five replicate experiments.
where C=the total number of landings on the IPA control well, and T=the total number of landings on the test solution well. The % mean repellencies at 1% (w/v) with respect to the compounds of Examples 1˜15 are depicted in Table 2, wherein R refers to the substituent on nepetalactam.

Compound | pest or weed control at 10000 µg/mL
CC1=CNC(=O)[C@H]2[C@@H]1CC[C@@H]2C [II, (4aS,7S,7aR)-4,7-dimethyl-2,4a,5,6,7,7a-hexahydro-1H-cyclopenta [c]pyridin-1-one] | 66%
CC1=CN(C)C(=O)[C@H]2[C@@H]1CC[C@@H]2C [IIIa, (4aS,7S,7aR)-2,4,7-trimethyl-2,4a,5,6,7,7a-hexahydro-1H-cyclopenta[c]pyridin-1-one] | 94.8%
CCN1C=C(C)[C@H]2CC[C@H](C)[C@H]2C1=O [IIIb, (4aS,7S,7aR)-2-ethyl-4,7-dimethyl-2,4a,5,6,7,7a-hexahydro-1H-cyclopenta[c]pyridin-1-one] | 97.9%
CCCN1C=C(C)[C@H]2CC[C@H](C)[C@H]2C1=O [IIIc, (4aS,7S,7aR)-2-n-propyl-4,7-dimethyl-2,4a,5,6,7,7a-hexahydro-1H-cyclopenta[c]pyridin-1-one] | 99.8%
CCCCN1C=C(C)[C@H]2CC[C@H](C)[C@H]2C1=O [IIId, (4aS,7S,7aR)-2-n-butyl-4,7-dimethyl-2,4a,5,6,7,7a-hexahydro-1H-cyclopenta[c]pyridin-1-one] | 97.3%
CCCCCN1C=C(C)[C@H]2CC[C@H](C)[C@H]2C1=O [IIIe, (4aS,7S,7aR)-2-n-pentyl-4,7-dimethyl-2,4a,5,6,7,7a-hexahydro-1H-cyclopenta[c]pyridin-1-one] | 97.5%
CCCCCCN1C=C(C)[C@H]2CC[C@H](C)[C@H]2C1=O [IIIf, (4aS,7S,7aR)-2-n-hexyl-4,7-dimethyl-2,4a,5,6,7,7a-hexahydro-1H-cyclopenta[c]pyridin-1-one] | 97.2%
CCCCCCCCN1C=C(C)[C@H]2CC[C@H](C)[C@H]2C1=O [IIIg, (4aS,7S,7aR)-2-n-octyl-4,7-dimethyl-2,4a,5,6,7,7a-hexahydro-1H-cyclopenta[c]pyridin-1-one] | 93.2%
CC1=CN(C2CCCCC2)C(=O)[C@H]2[C@@H]1CC[C@@H]2C [IIIh, (4aS,7S,7aR)-2-n-cyclohexyl-4,7-dimethyl-2,4a,5,6,7,7a-hexahydro-1H-cyclopenta[c]pyridin-1-one] | 98.9%
CC1=CN(C(C)C)C(=O)[C@H]2[C@@H]1CC[C@@H]2C [IIIi, (4aS,7S,7aR)-2-n-isopropyl-4,7-dimethyl-2,4a,5,6,7,7a-hexahydro-1H-cyclopenta[c]pyridin-1-one] | 94.7%
C=CCN1C=C(C)[C@H]2CC[C@H](C)[C@H]2C1=O [IIIj, (4aS,7S,7aR)-2-n-allyl-4,7-dimethyl-2,4a,5,6,7,7a-hexahydro-1H-cyclopenta[c]pyridin-1-one] | 78.1%
C#CCN1C=C(C)[C@H]2CC[C@H](C)[C@H]2C1=O [IIIk, (4aS,7S,7aR)-2-n-propargyl-4,7-dimethyl-2,4a,5,6,7,7a-hexahydro-1H-cyclopenta[c]pyridin-1-one] | 95.6%
CC1=CN(c2ccccc2)C(=O)[C@H]2[C@@H]1CC[C@@H]2C [Va, (4aS,7S,7aR)-4,7-dimethyl-2-phenyl-2,4a,5,6,7,7a-hexahydro-1H-cyclopenta[c]pyridin-1-one] | 93.1%
CC1=CN(c2ccc(Cl)cc2)C(=O)[C@H]2[C@@H]1CC[C@@H]2C [Vb, (4aS,7S,7aR)-2-(4-chlorophenyl)-4,7-dimethyl-2,4a,5,6,7,7a-hexahydro-1H-cyclopenta[c]pyridin-1-one] | 75.3%
CC1=CN(c2ccc(Br)cc2)C(=O)[C@H]2[C@@H]1CC[C@@H]2C [Vc, (4aS,7S,7aR)-2-(4-bromophenyl)-4,7-dimethyl-2,4a,5,6,7,7a-hexahydro-1H-cyclopenta[c]pyridin-1-one] | 41.5%
